# What was measured:
# [1] = target: T1, Alpha-1D adrenergic receptor (Homo sapiens, UniProt P25100); experiment: Affinity to human Alpha-1D adrenergic receptor determined by radioligand binding techniques from rat-1 fibroblasts membranes
# T1 sequence (P25100 whole entry): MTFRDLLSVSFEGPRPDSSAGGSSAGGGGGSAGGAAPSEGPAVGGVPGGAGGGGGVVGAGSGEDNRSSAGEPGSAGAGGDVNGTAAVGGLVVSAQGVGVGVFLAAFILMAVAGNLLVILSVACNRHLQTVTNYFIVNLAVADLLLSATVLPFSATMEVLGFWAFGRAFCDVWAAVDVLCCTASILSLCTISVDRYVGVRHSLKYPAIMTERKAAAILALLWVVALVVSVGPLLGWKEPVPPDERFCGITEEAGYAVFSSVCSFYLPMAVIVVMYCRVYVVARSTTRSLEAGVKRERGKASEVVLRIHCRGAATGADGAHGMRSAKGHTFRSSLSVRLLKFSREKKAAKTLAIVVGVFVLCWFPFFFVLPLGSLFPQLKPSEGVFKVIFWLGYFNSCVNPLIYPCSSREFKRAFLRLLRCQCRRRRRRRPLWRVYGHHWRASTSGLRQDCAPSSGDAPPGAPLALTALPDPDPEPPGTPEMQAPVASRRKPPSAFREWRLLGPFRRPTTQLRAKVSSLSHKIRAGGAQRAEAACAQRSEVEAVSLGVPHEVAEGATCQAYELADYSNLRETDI
# [2] = target: T2, Alpha-1A adrenergic receptor (Homo sapiens, UniProt P35348); experiment: Affinity to Alpha-1 adrenergic receptor determined by radioligand binding techniques from rat-1 fibroblasts membranes
# T2 sequence (P35348 whole entry): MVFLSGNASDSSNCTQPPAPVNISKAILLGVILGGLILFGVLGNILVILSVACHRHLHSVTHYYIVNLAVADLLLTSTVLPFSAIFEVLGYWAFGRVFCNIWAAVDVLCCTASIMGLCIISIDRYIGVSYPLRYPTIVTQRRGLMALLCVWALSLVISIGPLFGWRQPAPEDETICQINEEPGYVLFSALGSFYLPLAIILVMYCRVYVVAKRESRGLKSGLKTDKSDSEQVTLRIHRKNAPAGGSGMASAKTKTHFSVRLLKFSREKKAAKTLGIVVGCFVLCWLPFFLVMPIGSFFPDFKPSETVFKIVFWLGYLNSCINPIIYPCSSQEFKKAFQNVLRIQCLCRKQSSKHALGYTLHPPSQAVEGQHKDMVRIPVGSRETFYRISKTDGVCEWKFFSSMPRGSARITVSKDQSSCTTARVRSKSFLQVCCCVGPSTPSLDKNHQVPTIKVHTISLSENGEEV
# [3] = target: T3, Alpha-2B adrenergic receptor (Homo sapiens, UniProt P18089); experiment: Affinity to human Alpha-2B adrenergic receptor determined by radioligand binding techniques from chinese hamster ovary (CHO) cells; type: cell-based
# T3 sequence (P18089 whole entry): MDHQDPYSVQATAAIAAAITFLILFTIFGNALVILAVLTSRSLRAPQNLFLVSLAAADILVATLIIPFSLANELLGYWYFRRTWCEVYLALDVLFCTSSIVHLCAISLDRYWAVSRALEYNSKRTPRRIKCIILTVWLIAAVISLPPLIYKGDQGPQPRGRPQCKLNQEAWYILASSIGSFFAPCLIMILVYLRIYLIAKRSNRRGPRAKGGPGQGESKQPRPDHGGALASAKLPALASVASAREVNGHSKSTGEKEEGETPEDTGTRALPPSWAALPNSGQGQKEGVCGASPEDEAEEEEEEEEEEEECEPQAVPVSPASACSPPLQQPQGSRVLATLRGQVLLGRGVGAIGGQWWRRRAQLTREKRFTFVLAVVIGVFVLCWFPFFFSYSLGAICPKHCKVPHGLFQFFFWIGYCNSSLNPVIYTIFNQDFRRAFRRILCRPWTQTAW
# [4] = target: T4, Alpha-1B adrenergic receptor (Homo sapiens, UniProt P35368); experiment: Affinity to human Alpha-1B adrenergic receptor determined by radioligand binding techniques from rat-1 fibroblasts membranes
# T4 sequence (P35368 whole entry): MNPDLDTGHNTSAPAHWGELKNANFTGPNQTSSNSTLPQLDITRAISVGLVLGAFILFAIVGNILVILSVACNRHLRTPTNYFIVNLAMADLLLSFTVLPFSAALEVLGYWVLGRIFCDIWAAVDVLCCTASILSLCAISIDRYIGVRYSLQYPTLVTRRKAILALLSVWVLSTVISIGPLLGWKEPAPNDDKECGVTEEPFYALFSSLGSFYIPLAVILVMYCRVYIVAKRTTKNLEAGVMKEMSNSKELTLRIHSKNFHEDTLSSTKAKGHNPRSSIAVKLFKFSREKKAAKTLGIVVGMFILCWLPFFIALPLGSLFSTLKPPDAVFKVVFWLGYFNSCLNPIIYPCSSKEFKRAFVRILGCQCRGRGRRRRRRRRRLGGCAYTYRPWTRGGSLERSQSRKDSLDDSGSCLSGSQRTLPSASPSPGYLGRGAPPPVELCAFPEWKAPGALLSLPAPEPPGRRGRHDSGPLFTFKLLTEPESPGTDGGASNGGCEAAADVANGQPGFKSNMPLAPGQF
# [5] = target: T5, Alpha-2C adrenergic receptor (Homo sapiens) (UniProt P18825); experiment: Efficacy as percentage of the maximal effect observed for nonselective agonist UK-14304 in CHO cells expressing human Alpha-2C adrenergic receptor; type: functional, cell-based
# T5 sequence (whole entry): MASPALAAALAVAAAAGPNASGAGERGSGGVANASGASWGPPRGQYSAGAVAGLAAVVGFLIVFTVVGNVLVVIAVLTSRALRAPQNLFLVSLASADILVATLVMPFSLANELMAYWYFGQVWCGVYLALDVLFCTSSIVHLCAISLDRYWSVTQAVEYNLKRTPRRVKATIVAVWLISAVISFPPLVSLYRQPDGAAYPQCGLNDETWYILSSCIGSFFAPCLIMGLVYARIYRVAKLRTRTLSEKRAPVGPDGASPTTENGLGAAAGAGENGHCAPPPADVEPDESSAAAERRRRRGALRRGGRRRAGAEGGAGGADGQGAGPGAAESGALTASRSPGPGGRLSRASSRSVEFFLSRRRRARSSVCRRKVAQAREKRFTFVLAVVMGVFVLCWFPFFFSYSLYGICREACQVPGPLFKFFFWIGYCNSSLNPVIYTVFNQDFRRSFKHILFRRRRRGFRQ
# [6] = target: T6, Alpha-2C adrenergic receptor (Homo sapiens, UniProt P18825); experiment: Affinity to human Alpha-2C adrenergic receptor determined by radioligand binding techniques from chinese hamster ovary (CHO) cells; type: cell-based
# T6 sequence (P18825 whole entry): T5 sequence (whole entry)
SMILES,Ki [1],Ki [2],Ki [3],Ki [4],Max [5],Ki [6]
CS(=O)(=O)c1cccc(F)c1NCC1=NCCN1,912 nM,417 nM,> 6310 nM,380 nM,93%,692 nM
CS(=O)(=O)c1c(F)cccc1NCC1=NCCN1,3470 nM,550 nM,> 6310 nM,2290 nM,93%,257 nM
CS(=O)(=O)c1cc(F)ccc1NCC1=NCCN1,1620 nM,661 nM,> 6310 nM,513 nM,32%,> 5010 nM
CCCS(=O)(=O)c1ccccc1NCC1=NCCN1,1380 nM,2190 nM,> 6310 nM,832 nM,56%,2630 nM
CCSc1ccccc1NCC1=NCCN1,57.5 nM,43.7 nM,1620 nM,75.9 nM,101%,269 nM
CSc1ccccc1NCC1=NCCN1,11.2 nM,43.7 nM,776 nM,66.1 nM,82%,145 nM
CC(C)Sc1ccccc1NCC1=NCCN1,224 nM,57.5 nM,2340 nM,170 nM,91%,166 nM
CC(C)S(=O)(=O)c1ccccc1NCC1=NCCN1,2820 nM,2690 nM,> 6310 nM,1000 nM,50%,> 5010 nM
CS(=O)(=O)c1ccc(Cl)cc1NCC1=NCCN1,2400 nM,537 nM,> 6310 nM,2950 nM,81%,4790 nM
CS(=O)(=O)c1ccccc1NCC1=NCCN1,3800 nM,589 nM,> 6310 nM,1290 nM,68%,> 5010 nM
CSc1cc(F)ccc1NCC1=NCCN1,5.01 nM,20.9 nM,851 nM,15.1 nM,82%,219 nM
CSc1ccc(C(F)(F)F)cc1NCC1=NCCN1,479 nM,589 nM,1660 nM,2040 nM,45%,603 nM
CSc1ccc(F)cc1NCC1=NCCN1,6.17 nM,33.1 nM,331 nM,40.7 nM,97%,115 nM
CSc1ccc(C)cc1NCC1=NCCN1,17.4 nM,20.9 nM,977 nM,123 nM,81%,200 nM
CSc1ccc(Cl)cc1NCC1=NCCN1,4.68 nM,18.6 nM,676 nM,69.2 nM,92%,170 nM
CS(=O)(=O)c1cc(Cl)ccc1NCC1=NCCN1,871 nM,457 nM,> 6310 nM,646 nM,54%,3980 nM
COc1ccc(SC)c(NCC2=NCCN2)c1,107 nM,174 nM,> 6310 nM,692 nM,74%,603 nM
C[S+]([O-])c1ccccc1NCC1=NCCN1 (stereo not drawn),1200 nM,1290 nM,> 6310 nM,794 nM,74%,> 5010 nM
CCS(=O)(=O)c1ccccc1NCC1=NCCN1,2240 nM,1200 nM,> 6310 nM,912 nM,64%,2510 nM
CS(=O)(=O)c1ccc(F)cc1NCC1=NCCN1,2630 nM,813 nM,> 6310 nM,1320 nM,91%,> 5010 nM
CS(=O)(=O)c1ccc(C(F)(F)F)cc1NCC1=NCCN1,> 15800 nM,> 12600 nM,> 6310 nM,> 10000 nM,25%,> 5010 nM
CSc1c(F)cccc1NCC1=NCCN1,302 nM,148 nM,3980 nM,240 nM,104%,219 nM
Cc1ccc(S(C)(=O)=O)c(NCC2=NCCN2)c1,4790 nM,776 nM,> 6310 nM,3470 nM,76%,> 5010 nM
